According to patent US8742156B2 (priority 2010, dated 2014):
Structures can show the parent of a compound that is named as a salt. Where two headings read alike, the source gives them in different places.

Key:
[1] = system: H1N1 virus (A/HK/54/98 (Tamiflu-sensitive strain)); test: Viral infection of MDCK cells, TCID50 viral titer, H1N1 (Tamiflu-sensitive); type: cell-based, Human influenza H1N1 virus; conditions: for TCID50/ml H1N1 virus: m.o.i of 2, supernatant 48-hour post-infection; for viral titers of Tamiflu-sensitive (Tami-S) H1N1 virus decreased (fold): FIG. 1, multiplicity of infection of 0.2, 48-hour post-infection
H9N2 (A/Quail/HK/G1/97) = type: cell-based, influenza H9N2 virus; conditions: for TCID50/ml H9N2 virus: m.o.i of 2, supernatant 48-hour post-infection
H3N2 (A/H3N2/1174/99) = test: Viral infection of MDCK cells, TCID50 viral titer, H3N2; type: cell-based, influenza H3N2 virus; conditions: for TCID50/ml H3N2 virus: m.o.i of 2, supernatant 48-hour post-infection
MDCK cells = test: Cell Viability Test (MTT); type: cell-based, canine; conditions: 50 uM, 72 hours
Protocol: This compound was obtained from the National Cancer Institute, USA. Cell Viability Test: MDCK cells were seeded at 2×10^6/ml in a 96-well plate for 16-24 hours. Compound 58 (50 uM) was added to the cells. DMSO was added to the cells as a control. Cells were incubated at 37° C. and 5% CO2 for 72 hours, and then Thiazolyl Blue Tetrazolium Bromide (MTT) was added to a final concentration of 0.1 mg/ml. After two hours, the culture supernatant was removed and each well was replenished with isopropanol. The MTT metabolic product, formazan, was dissolved in isopropanol for five minutes with shaking. The optical densities of formazan and background were measured at 560 nm and 670 nm, respectively.

Row | Compound | TCID50/ml H1N1 virus ([1]; 100 μM) | virus level suppressed (fold) ([1]; H1N1 tamiflu-sensitive, Table 1B (100 μM)) | TCID50/ml H1N1 virus ([1]; 50 μM) | viral titers of Tamiflu-sensitive (Tami-S) H1N1 virus decreased (fold) [1] [fold] | TCID50/ml H9N2 virus (H9N2 (A/Quail/HK/G1/97); 50 μM) | TCID50/ml H3N2 virus (H3N2 (A/H3N2/1174/99); 50 μM) | TCID50/ml H1N1 virus ([1]; 10 μM) | TCID50/ml H1N1 virus ([1]; 20 μM) | inhibitory effects against Tami-S H1N1 virus ([1]; FIG. 1, multiplicity of infection of 0.2) | inhibition of replication of H1N1 virus ([1]; TCID50 results, Table 1A) | cytotoxicity in MDCK cells compared with DMSO (MDCK cells) | Cytotoxicity index (MDCK cells; MDCK cells, MTT, relative to DMSO (1.0)) | TCID50/ml H9N2 virus (H9N2 (A/Quail/HK/G1/97); 10 μM) | TCID50/ml H9N2 virus (H9N2 (A/Quail/HK/G1/97); 20 μM) | inhibition of replication of H9N2 virus (H9N2 (A/Quail/HK/G1/97); TCID50 results, Table 1A) | TCID50/ml H3N2 virus (H3N2 (A/H3N2/1174/99); 10 μM) | TCID50/ml H3N2 virus (H3N2 (A/H3N2/1174/99); 20 μM) | inhibition of replication of H3N2 virus (H3N2 (A/H3N2/1174/99); TCID50 results, Table 1A)
1 | O=C(Nc1ccc(Nc2ccncc2)cc1)c1ccc(Nc2ccnc3ccccc23)cc1[N+](=O)[O-] [Compound 73, 2-nitro-N-[4-(pyridin-4-ylamino)phenyl]-4-(quinolin-4-ylamino)benzamide] | 2.28 × 10^3 TCID50/ml | around 10 fold | – | – | – | – | – | – | – | – | – | – | – | – | – | – | – | –
2 | CCOC(=O)C1=C[C@@H](OC(CC)CC)[C@H](NC(C)=O)[C@@H](N)C1 [Tamiflu, oseltamivir, reference compound] | 1.52 × 10^3 TCID50/ml | – | 1.45 × 10^4 TCID50/ml | 8 | 9.00 × 10^1 TCID50/ml | 7.24 × 10^3 TCID50/ml | – | – | – | – | – | – | – | – | – | – | – | –
3 | N=C(Nc1ccccc1)SCCCSC(=N)Nc1ccccc1 [Compound 58, Carbamimidothioic acid, phenyl-, 1,3-propanediyl ester, dihydrobromide] | – | – | 4.53 × 10^2 TCID50/ml | 5 | 1.90 × 10^2 TCID50/ml | 7.24 × 10^3 TCID50/ml | 2.90 × 10^4 TCID50/ml | 1.82 × 10^4 TCID50/ml | potent inhibitory effects | inhibits the replication | does not display cytotoxicity | 0.916 | 1.14 × 10^3 TCID50/ml | 4.16 × 10^2 TCID50/ml | inhibits the replication | 4.61 × 10^4 TCID50/ml | 1.72 × 10^4 TCID50/ml | inhibits the replication
